Data taken from PubChem BioAssay AID248 (DTP/NCI, 2004).
Values joined by “and” are separate entries in the source; they are usually repeats but may differ in a detail not shown here. Equal values may be shown once. Inconclusive results and toxic doses are left out. Rule as the data show it: active = T/C of 150% or more; inactive = T/C below 125%.

Test system: L1210 leukemia ip in BDF1 mice, survival T/C
Experiment: NCI In Vivo Anticancer Drug Screen. Data for tumor model L1210 Leukemia (intraperitoneal) in B6D2F1 (BDF1) mice
Settings: endpoint: mean survival time, higher = longer survival
Outline: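 Ratio derived from survival: compound-dosed mice over vehicle-dosed mice, all bearing a transplantable tumor.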

[1] = dose: 100.0 mg/kg/injection, schedule: Q01DX001 (ip), vehicle: saline
[2] = dose: 200.0 mg/kg/injection, schedule: Q01DX001 (ip), vehicle: saline
[3] = dose: 400.0 mg/kg/injection, schedule: Q01DX001 (ip), vehicle: saline
[4] = dose: 100.0 mg/kg/injection, schedule: Q01DX001 (ip), vehicle: other
[5] = dose: 200.0 mg/kg/injection, schedule: Q01DX001 (ip), vehicle: other
[6] = dose: 400.0 mg/kg/injection, schedule: Q01DX001 (ip), vehicle: other
[7] = dose: 50.0 mg/kg/injection, schedule: Q01DX009 (ip), vehicle: saline with Tween-80
[8] = dose: 100.0 mg/kg/injection, schedule: Q01DX009 (ip), vehicle: saline with Tween-80
[9] = dose: 100.0 mg/kg/injection, schedule: Q04DX003 (ip), vehicle: saline with Tween-80
[10] = dose: 200.0 mg/kg/injection, schedule: Q01DX009 (ip), vehicle: saline with Tween-80
[11] = dose: 200.0 mg/kg/injection, schedule: Q04DX003 (ip), vehicle: saline with Tween-80
[12] = dose: 100.0 mg/kg/injection, schedule: Q04DX003 (ip), vehicle: saline
[13] = dose: 200.0 mg/kg/injection, schedule: Q04DX003 (ip), vehicle: saline
[14] = dose: 400.0 mg/kg/injection, schedule: Q04DX003 (ip), vehicle: saline
[15] = dose: 100.0 mg/kg/injection, schedule: Q01DX001 (ip), vehicle: carboxymethylcellulose (CMC)
[16] = dose: 100.0 mg/kg/injection, schedule: Q04DX002 (ip), vehicle: Klucel (hydroxypropylcellulose) (HPC)
[17] = dose: 200.0 mg/kg/injection, schedule: Q01DX001 (ip), vehicle: carboxymethylcellulose (CMC)
[18] = dose: 200.0 mg/kg/injection, schedule: Q04DX002 (ip), vehicle: Klucel (hydroxypropylcellulose) (HPC)
[19] = dose: 400.0 mg/kg/injection, schedule: Q01DX001 (ip), vehicle: carboxymethylcellulose (CMC)

Measured: T/C

CCN(CC)CC(O)COc1ccccc1C (stereo unspecified)
inactive: dose: 5.0 mg/kg/injection, schedule: Q01DX001 (ip), vehicle: saline 101 % of control | dose: 10.0 mg/kg/injection, schedule: Q01DX001 (ip), vehicle: saline 101 % of control | dose: 20.0 mg/kg/injection, schedule: Q01DX001 (ip), vehicle: saline 104 % of control | dose: 40.0 mg/kg/injection, schedule: Q01DX001 (ip), vehicle: saline 104 % of control | dose: 80.0 mg/kg/injection, schedule: Q01DX001 (ip), vehicle: saline 101 % of control | [1] 102 % of control

CC(CCCO)C1CCC2C3CCC4CC5(CCC4(C)C3CCC12C)OCCO5 (stereo unspecified)
inactive: dose: 100.0 mg/kg/injection, schedule: Q01DX009 (sc), vehicle: steriod suspending solution 104 % of control | dose: 200.0 mg/kg/injection, schedule: Q01DX009 (sc), vehicle: steriod suspending solution 92 % of control | dose: 400.0 mg/kg/injection, schedule: Q01DX009 (sc), vehicle: steriod suspending solution 94 % of control

CC(=O)Oc1cc(C)[nH]c(=O)c1
inactive: [1] 101 % of control | [2] 105 % of control | [3] 101 % of control

c1ccc2[nH]c(CN3CCCCC3)cc2c1
inactive: dose: 12.5 mg/kg/injection, schedule: Q04DX003 (ip), vehicle: saline with Tween-80 103 % of control | dose: 25.0 mg/kg/injection, schedule: Q04DX003 (ip), vehicle: saline with Tween-80 98 % of control | dose: 50.0 mg/kg/injection, schedule: Q04DX003 (ip), vehicle: saline with Tween-80 98 % of control

CN(c1ccccc1)[N+](=O)[O-]
inactive: [4] 94 % of control | [5] 97 % of control | [6] 97 % of control

Nc1nc(N)c(CCCOc2ccc(NC(=O)c3cc(S(=O)(=O)F)ccc3Cl)cc2)c(N)n1
inactive: dose: 100.0 mg/kg/injection, schedule: Q01DX001 (ip), vehicle: Klucel (hydroxypropylcellulose) (HPC) 99 % of control | dose: 200.0 mg/kg/injection, schedule: Q01DX001 (ip), vehicle: Klucel (hydroxypropylcellulose) (HPC) 99 % of control | dose: 400.0 mg/kg/injection, schedule: Q01DX001 (ip), vehicle: Klucel (hydroxypropylcellulose) (HPC) 105 % of control

BrCC(Br)CBr
inactive: [7] 94 % of control | [8] 91 % of control | [9] 94 % of control | [10] 98 % of control | [11] 102 % of control

CC(C)CN(CC(=O)N1CC(=O)Nc2ccccc21)CC(C)C
inactive: dose: 100.0 mg/kg/injection, schedule: Q01DX009 (ip), vehicle: saline 94 % of control | [12] 95 % of control | dose: 200.0 mg/kg/injection, schedule: Q01DX009 (ip), vehicle: saline 87 % of control | [13] 95 % of control | [14] 92 % of control

NC1=NC(=O)C(c2ccccc2)(c2ccccc2)S1
inactive: [15] 91 % of control | dose: 100.0 mg/kg/injection, schedule: Q01DX009 (ip), vehicle: Klucel (hydroxypropylcellulose) (HPC) 97 % of control | [16] 94 % of control | [17] 98 % of control | dose: 200.0 mg/kg/injection, schedule: Q01DX009 (ip), vehicle: Klucel (hydroxypropylcellulose) (HPC) 97 % of control | [18] 90 % of control | [19] 91 % of control | dose: 400.0 mg/kg/injection, schedule: Q01DX009 (ip), vehicle: Klucel (hydroxypropylcellulose) (HPC) 97 % of control | dose: 400.0 mg/kg/injection, schedule: Q04DX002 (ip), vehicle: Klucel (hydroxypropylcellulose) (HPC) 97 % of control

O=C1C=CC(=O)N1c1ccnc(N2C(=O)C=CC2=O)c1
inactive: [15] 86 % of control | [17] 97 % of control | [19] 105 % of control

CCOC(=O)C1C(CCC#N)C(=O)CCC1(C#N)c1ccccc1 (stereo unspecified)
inactive: dose: 100.0 mg/kg/injection, schedule: Q04DX003 (ip), vehicle: acetone 98 % of control | dose: 200.0 mg/kg/injection, schedule: Q04DX003 (ip), vehicle: acetone 95 % of control | dose: 400.0 mg/kg/injection, schedule: Q04DX003 (ip), vehicle: acetone 98 % of control

CCCCN(C)N=Nc1cn(C2OC(CO)C(O)C2O)c(=O)n(C)c1=O (stereo unspecified)
inactive: dose: 100.0 mg/kg/injection, schedule: Q01DX005 (ip), vehicle: saline 119 % of control

CCSc1nc(/C=N/NS(=O)(=O)c2ccccc2)c(F)c(=O)[nH]1
inactive: [4] 105 % of control | [5] 101 % of control | [6] 96 % of control

CN(C)C(=O)SSC(=S)N(C)C
inactive: dose: 4.0 mg/kg/injection, schedule: Q01DX015 (ip), vehicle: carboxymethylcellulose (CMC) 93 % of control | dose: 8.0 mg/kg/injection, schedule: Q01DX015 (ip), vehicle: carboxymethylcellulose (CMC) 92 % of control | dose: 16.0 mg/kg/injection, schedule: Q01DX015 (ip), vehicle: carboxymethylcellulose (CMC) 106 % of control | dose: 32.0 mg/kg/injection, schedule: Q01DX015 (ip), vehicle: carboxymethylcellulose (CMC) 97 % of control and 98 % of control | dose: 64.0 mg/kg/injection, schedule: Q01DX015 (ip), vehicle: carboxymethylcellulose (CMC) 98 % of control | dose: 128.0 mg/kg/injection, schedule: Q01DX015 (ip), vehicle: carboxymethylcellulose (CMC) 96 % of control

C[C@]12CCC(=O)C=C1CC[C@H]1[C@@H]3CCC(=O)O[C@@]3(C)CC(=O)[C@@]12F
inactive: [15] 94 % of control | [17] 100 % of control | [19] 97 % of control

NC(=O)C(=Cc1ccc([N+](=O)[O-])s1)C(N)=O
inactive: [16] 107 % of control | [18] 112 % of control

CC1(C)N=C(N)N=C(N)N1c1ccc(OCCCNC(=O)Nc2cccc(S(=O)(=O)F)c2)c(Cl)c1
inactive: dose: 50.0 mg/kg/injection, schedule: Q01DX009 (ip), vehicle: saline 114 % of control

O=C1OC(c2ccccc2)=C/C1=C/c1ccccc1O
inactive: [7] 95 % of control | [8] 101 % of control | [10] 96 % of control

O=C(Cc1ccccc1)C(Cl)c1ccccc1 (stereo unspecified)
inactive: [1] 94 % of control | [2] 105 % of control

CN1CCC=C(C(=O)O)C1
inactive: dose: 50.0 mg/kg/injection, schedule: Q01DX001 (ip), vehicle: carboxymethylcellulose (CMC) 101 % of control | [15] 110 % of control | [17] 104 % of control

CC(CCCCCOC(=O)Nc1ccccc1)OC(=O)Nc1ccccc1 (stereo unspecified)
inactive: [4] 98 % of control | [5] 87 % of control | [6] 96 % of control

Cc1ccc(C(=O)CCl)c(C)c1
inactive: dose: 12.5 mg/kg/injection, schedule: Q01DX009 (ip), vehicle: saline with Tween-80 95 % of control | dose: 25.0 mg/kg/injection, schedule: Q01DX009 (ip), vehicle: saline with Tween-80 100 % of control | [7] 103 % of control

CN(C)N=Nc1ccccc1C(=O)NNC(N)=S
inactive: dose: 18.75 mg/kg/injection, schedule: Q01DX009 (ip), vehicle: Klucel (hydroxypropylcellulose) (HPC) 109 % of control | dose: 37.5 mg/kg/injection, schedule: Q01DX009 (ip), vehicle: Klucel (hydroxypropylcellulose) (HPC) 116 % of control | dose: 75.0 mg/kg/injection, schedule: Q01DX009 (ip), vehicle: Klucel (hydroxypropylcellulose) (HPC) 89 % of control

COc1ccccc1CC(=O)O
inactive: [1] 100 % of control | [9] 101 % of control | [2] 103 % of control | [11] 105 % of control | [3] 108 % of control | dose: 400.0 mg/kg/injection, schedule: Q04DX003 (ip), vehicle: saline with Tween-80 101 % of control

COC1OC(CO)C2OC(C)(C)OC2C1O (stereo unspecified)
inactive: dose: 100.0 mg/kg/injection, schedule: Q04DX002 (ip), vehicle: saline 93 % of control | dose: 200.0 mg/kg/injection, schedule: Q04DX002 (ip), vehicle: saline 101 % of control | dose: 400.0 mg/kg/injection, schedule: Q04DX002 (ip), vehicle: saline 104 % of control

CC(C)C(=O)NN
inactive: [12] 98 % of control | [13] 101 % of control | [14] 101 % of control
